Laboratory results taken from patent publication US20060069132A1, “Azolecarboxamide herbicides” (priority 2004, published 2006).

Columns and labels:
wheat = assay: Test B postemergence herbicide test; assay type: in vivo, Triticum aestivum; design: key to Wheat plant response rating: 0 = no effect, 100 = complete control
In short: (§1)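 Each value is a visual 0–100 response rating taken against controls 13 to 15 days after treatment in the greenhouse. Plants received formulated chemical postemergence at the 1- to 4-leaf stage or, in flooded paddy, at the 2-leaf stage.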

lambsquarters = assay: Test B pre-/postemergence herbicide test; assay type: in vivo, Chenopodium album
In short: (§2)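 Test chemicals in a non-phytotoxic solvent mixture with surfactant were applied preemergence to seeded species and postemergence to plants 2-18 cm tall (1- to 4-leaf stage); rice and barnyardgrass were also tested in a flooded paddy at the 2-leaf stage. Visual rating versus controls after 13-15 days in greenhouse, scale 0 (no effect) to 100 (complete control).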

morningglory = assay: Test B pre-/postemergence herbicide test; assay type: in vivo, Ipomoea coccinea
In short: (§3)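 Seeds were planted and treated preemergence with compounds formulated in a non-phytotoxic solvent mixture containing surfactant, while plants at the 1- to 4-leaf stage (2 to 18 cm) received postemergence sprays. Flooded paddy plants were grown to the 2-leaf stage. After 13 to 15 days in a greenhouse, injury was visually rated 0–100 against untreated controls.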

ducksalad = assay: Test B flooded paddy test; assay type: in vivo, Heteranthera limosa; conditions: 1000 g ai/ha, scale 0 to 100 (0 no effect, 100 complete control)
In short: (§4)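 Postemergence plants were sprayed with formulated test chemicals at 2 to 18 cm height (1- to 4-leaf stage); paddy species were grown to the 2-leaf stage. After 13 to 15 days in a greenhouse, injury was rated visually against untreated controls on a 0–100 scale (0 = no effect, 100 = complete control).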

[1] = test system: small flower umbrella sedge; assay: Test B flooded paddy test; assay type: in vivo, Cyperus difformis; conditions: 1000 g ai/ha, scale 0 to 100 (0 no effect, 100 complete control)
In short: as §4

giant foxtail = assay: Test B pre-/postemergence herbicide test; assay type: in vivo, Setaria faberi
In short: as §2

blackgrass = assay: Test B postemergence herbicide test; assay type: in vivo, Alopecurus myosuroides; conditions: scale 0 (no effect) to 100 (complete control)
In short: as §4

Surinam grass = assay: Test B pre-/postemergence herbicide test; assay type: in vivo, Urochloa decumbens
In short: as §2

wild oat = assay: Test B postemergence herbicide test; assay type: in vivo, Avena fatua; conditions: scale 0 (no effect) to 100 (complete control)
In short: as §1

velvetleaf = assay: Test B pre-/postemergence herbicide test; assay type: in vivo, Abutilon theophrasti
In short: as §2

rice = assay: Test B flooded paddy test; assay type: in vivo, Oryza sativa; conditions: 1000 g ai/ha, scale 0 to 100 (0 no effect, 100 complete control)
In short: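 Paddy species grown to the 2-leaf stage under flooding; blackgrass sprayed postemergence at 2–18 cm (1- to 4-leaf stage). Plants kept in a greenhouse for 13 to 15 days, then visually rated against controls on 0 (no effect) to 100 (complete control).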

barnyardgrass [2] = assay: Test B flooded paddy test; assay type: in vivo, Echinochloa crus-galli; conditions: 1000 g ai/ha, scale 0 to 100 (0 no effect, 100 complete control)
In short: as §4

cocklebur = assay: Test B pre-/postemergence herbicide test; assay type: in vivo, Xanthium strumarium
In short: as §3

pigweed = assay: Test B pre-/postemergence herbicide test; assay type: in vivo, Amaranthus retroflexus
In short: as §2

barnyardgrass [3] = assay: Test B pre-/postemergence herbicide test; assay type: in vivo, Echinochloa crus-galli
In short: as §3

[4] = 125 g ai/ha, visual rating, scale 0 (no effect) to 100 (complete control), postemergence
[5] = Postemergence, 500 g ai/ha, scale 0 (no effect) to 100 (complete control)
[6] = 125 g ai/ha, 0 is no effect, 100 is complete control, preemergence
[7] = 125 g ai/ha, visual rating, postemergence
[8] = Postemergence, 500 g ai/ha, visual rating after 13 to 15 days, scale 0 (no effect) to 100 (complete control)
[9] = postemergence, 125 g ai/ha, visual rating, scale 0 (no effect) to 100 (complete control)
[10] = preemergence, 125 g ai/ha, 0 to 100 scale, 0 is no effect, 100 is complete control
[11] = Preemergence, 500 g ai/ha, scale 0 to 100
[12] = Postemergence, 500 g ai/ha, visual rating after 13 to 15 days
[13] = postemergence, 125 g ai/ha, visual rating

SMILES: Cc1nn(C(C)(C)C)nc1C(=O)Nc1cccc(C(=O)N(C)C)c1 [Compound 391]
- Wheat plant response rating (wheat; [4]): 0
- Wheat plant response rating (wheat; 500 g ai/ha, scale 0 to 100, 0 no effect, 100 complete control, preemergence): 100
- Wheat plant response rating (wheat; [5]): 10
- Plant response rating (0 to 100 scale), Lambsquarters (lambsquarters; [6]): 100
- Lambsquarters plant response rating (lambsquarters; [4]): 70
- Lambsquarters plant response rating (lambsquarters; [5]): 90
- Plant response rating (0 to 100 scale), Morningglory (morningglory; [6]): 90
- Morningglory plant response rating (morningglory; [4]): 30
- Morningglory plant response rating (morningglory; [5]): 70
- Ducksalad plant response rating (ducksalad): 90
- Sedge, Umbrella plant response rating [1]: 80
- Plant response rating (0 to 100 scale), Foxtail, Giant (giant foxtail; [6]): 90
- Foxtail, Giant plant response rating (giant foxtail; [4]): 20
- Foxtail, Giant plant response rating (giant foxtail; [5]): 30
- Blackgrass plant response rating (blackgrass; [7]): 30
- Blackgrass plant response rating (blackgrass; Postemergence, 500 g ai/ha): 70
- Plant response rating (0 to 100 scale), Surinam Grass (Surinam grass; [6]): 100
- Surinam Grass plant response rating (Surinam grass; [4]): 10
- Surinam Grass plant response rating (Surinam grass; [5]): 30
- Oat, Wild plant response rating (wild oat; [7]): 0
- Oat, Wild plant response rating (wild oat; Postemergence, 500 g ai/ha): 20
- Plant response rating (0 to 100 scale), Velvetleaf (velvetleaf; [6]): 80
- Velvetleaf plant response rating (velvetleaf; [4]): 40
- Velvetleaf plant response rating (velvetleaf; [5]): 60
- Rice plant response rating (rice): 90
- Barnyardgrass plant response rating (barnyardgrass [2]): 90
- Plant response rating (0 to 100 scale), Cocklebur (cocklebur; [6]): 70
- Cocklebur plant response rating (cocklebur; [4]): 30
- Cocklebur plant response rating (cocklebur; [5]): 30
- Plant response rating (0 to 100 scale), Pigweed (pigweed; [6]): 100
- Pigweed plant response rating (pigweed; [4]): 50
- Pigweed plant response rating (pigweed; [5]): 70
- Plant response rating (0 to 100 scale), Barnyardgrass (barnyardgrass [3]; [6]): 100
- Barnyardgrass plant response rating (barnyardgrass [3]; [4]): 10
- Barnyardgrass plant response rating (barnyardgrass [3]; [5]): 30

SMILES: C=CCOC(=O)c1cccc(NC(=O)c2cc(C(C)(C)C)nn2CC)c1 [Compound 85]
- Plant response rating, Wheat (wheat; [8]): 60
- Wheat plant response rating (wheat; [9]): 50
- Plant response rating, Lambsquarters (lambsquarters; [8]): 60
- Lambsquarters plant response rating (lambsquarters; [9]): 50
- Plant response rating, Lambsquarters (lambsquarters; [10]): 0
- Plant response rating, Morningglory (morningglory; [8]): 100
- Morningglory plant response rating (morningglory; [9]): 50
- Plant response rating, Morningglory (morningglory; [10]): 0
- Ducksalad plant response rating (ducksalad; visual rating, 13 to 15 days): 20
- Sedge, Umbrella plant response rating ([1]; visual rating, 13 to 15 days): 60
- Plant response rating, Foxtail, Giant (giant foxtail; [8]): 50
- Foxtail, Giant plant response rating (giant foxtail; [11]): 0
- Foxtail, Giant plant response rating (giant foxtail; [9]): 20
- Plant response rating, Foxtail, Giant (giant foxtail; [10]): 0
- Plant response rating, Blackgrass (blackgrass; [12]): 20
- Blackgrass plant response rating (blackgrass; [13]): 10
- Plant response rating, Surinam Grass (Surinam grass; [8]): 70
- Surinam Grass plant response rating (Surinam grass; [9]): 60
- Plant response rating, Surinam Grass (Surinam grass; [10]): 0
- Plant response rating, Oat, Wild (wild oat; [12]): 50
- Oat, Wild plant response rating (wild oat; [13]): 20
- Plant response rating, Velvetleaf (velvetleaf; [8]): 80
- Velvetleaf plant response rating (velvetleaf; [9]): 60
- Plant response rating, Velvetleaf (velvetleaf; [10]): 0
- Rice plant response rating (rice; visual rating, 13 to 15 days): 40
- Barnyardgrass plant response rating (barnyardgrass [2]; visual rating, 13 to 15 days): 40
- Plant response rating, Cocklebur (cocklebur; [8]): 100
- Cocklebur plant response rating (cocklebur; [11]): 0
- Cocklebur plant response rating (cocklebur; [9]): 90
- Plant response rating, Cocklebur (cocklebur; [10]): 0
- Plant response rating, Pigweed (pigweed; [8]): 100
- Pigweed plant response rating (pigweed; [9]): 100
- Plant response rating, Pigweed (pigweed; [10]): 0
- Plant response rating, Barnyardgrass (barnyardgrass [3]; [8]): 80
- Barnyardgrass plant response rating (barnyardgrass [3]; [11]): 0
- Barnyardgrass plant response rating (barnyardgrass [3]; [9]): 60
- Plant response rating, Barnyardgrass (barnyardgrass [3]; [10]): 0
